According to ChEMBL document CHEMBL1795221, “In vitro and in vivo anticancer activity evaluation of ursolic acid derivatives” (Eur J Med Chem, 2011):
Values belong to the compound of their own block, whether it stands above or below them.

Columns and labels:
BGC-823 = test: Cytotoxicity against human BGC823 cells after 24 hrs by MTT assay; assay type: functional, cell-based; details: BGC-823, 24 h
SH-SY5Y = test: Cytotoxicity against human SH-SY5Y cells after 24 hrs by MTT assay; assay type: functional, cell-based
[1] = Cytotoxicity against human HELF cells after 24 hrs by MTT assay; assay type: cell-based
HepG2 = test: cells; details: Homo sapiens, HepG2, 24 h
Description: Cytotoxicity against human HepG2 cells after 24 hrs by MTT assay

HeLa = test: cells; details: Homo sapiens, 24 h
Description: Cytotoxicity against human HeLa cells after 24 hrs by MTT assay

SMILES: CC(=O)O[C@H]1CC[C@]2(C)[C@H]3CC=C4[C@@H]5[C@@H](C)[C@H](C)CC[C@]5(C(=O)N5CCN(CCOCCO)CC5)CC[C@@]4(C)[C@]3(C)CC[C@H]2C1(C)C
IC50 (BGC-823): 12.8 µM
IC50 (SH-SY5Y): 9.51 µM
IC50 [1]: 38.9 µM
IC50 (HepG2): 15.3 µM
IC50 (HeLa): 6.28 µM

SMILES: CC(=O)O[C@H]1CC[C@]2(C)[C@H]3CC=C4[C@@H]5[C@@H](C)[C@H](C)CC[C@]5(C(=O)N5CCC(CCO)CC5)CC[C@@]4(C)[C@]3(C)CC[C@H]2C1(C)C
IC50 (BGC-823): 51.3 µM
IC50 (SH-SY5Y): 40.1 µM
IC50 [1]: 30 µM
IC50 (HepG2): 59.4 µM
IC50 (HeLa): 12.4 µM

SMILES: CC(=O)O[C@H]1C(=O)[C@@]2(C)[C@H]([C@H](OC(=O)c3ccccc3)[C@]3(O)C[C@H](OC(=O)[C@H](O)[C@@H](NC(=O)c4ccccc4)c4ccccc4)C(C)=C1C3(C)C)[C@]1(OC(C)=O)CO[C@@H]1C[C@@H]2O [PACLITAXEL]
IC50 (BGC-823): 9.24 µM
IC50 (SH-SY5Y): 8.56 µM
IC50 [1]: 7.17 µM
IC50 (HepG2): 10.3 µM
IC50 (HeLa): 6.62 µM

SMILES: COC(=O)C(CO)NC(=O)[C@]12CC[C@@H](C)[C@H](C)[C@H]1C1=CC[C@@H]3[C@@]4(C)CC[C@H](OC(C)=O)C(C)(C)[C@@H]4CC[C@@]3(C)[C@]1(C)CC2 (stereo not given in full)
IC50 (BGC-823): 29 µM
IC50 (SH-SY5Y): 37.2 µM
IC50 [1]: 22.3 µM
IC50 (HepG2): 35.3 µM
IC50 (HeLa): 20.6 µM

SMILES: C[C@H]1[C@H](C)CC[C@]2(C(=O)NC(Cc3ccc(O)cc3)C(=O)O)CC[C@]3(C)C(=CC[C@@H]4[C@@]5(C)CC[C@H](O)C(C)(C)[C@@H]5CC[C@]43C)[C@H]12 (stereo not given in full)
IC50 (BGC-823): > 100 µM
IC50 (SH-SY5Y): > 100 µM
IC50 [1]: > 100 µM
IC50 (HepG2): > 100 µM
IC50 (HeLa): > 100 µM

SMILES: C[C@H]1[C@H](C)CC[C@]2(C(=O)N3CCN(CCO)CC3)CC[C@]3(C)C(=CC[C@@H]4[C@@]5(C)CC[C@H](O)C(C)(C)[C@@H]5CC[C@]43C)[C@H]12
IC50 (BGC-823): 98.3 µM
IC50 (SH-SY5Y): > 100 µM
IC50 [1]: 32.8 µM
IC50 (HepG2): > 100 µM
IC50 (HeLa): 52.3 µM

SMILES: C[C@H]1[C@H](C)CC[C@]2(C(=O)N3CCN(CCOCCO)CC3)CC[C@]3(C)C(=CC[C@@H]4[C@@]5(C)CC[C@H](O)C(C)(C)[C@@H]5CC[C@]43C)[C@H]12
IC50 (BGC-823): 35 µM
IC50 (SH-SY5Y): 30.3 µM
IC50 [1]: 28.1 µM
IC50 (HepG2): 36.7 µM
IC50 (HeLa): 23.8 µM

More lines, main results first:

IC50 (HepG2): 87.4 µM
IC50 (HeLa): 69.4 µM
SMILES: C[C@H]1[C@H](C)CC[C@]2(C(=O)OCCCO[N+](=O)[O-])CC[C@]3(C)C(=CC[C@@H]4[C@@]5(C)CC[C@H](O)C(C)(C)[C@@H]5CC[C@]43C)[C@H]12
IC50 (BGC-823): 98.3 µM
IC50 (SH-SY5Y): 89.6 µM
IC50 [1]: 82.6 µM

IC50 (HepG2): 89.1 µM
IC50 (HeLa): 48 µM
SMILES: CCCOC(=O)[C@]12CC[C@@H](C)[C@H](C)[C@H]1C1=CC[C@@H]3[C@@]4(C)CC[C@H](O)C(C)(C)[C@@H]4CC[C@@]3(C)[C@]1(C)CC2
IC50 (BGC-823): 79.7 µM
IC50 (SH-SY5Y): 92.5 µM
IC50 [1]: > 100 µM

IC50 (HepG2): 83 µM
IC50 (HeLa): 41.6 µM
SMILES: C[C@H]1[C@H](C)CC[C@]2(C(=O)NC(CO)C(=O)O)CC[C@]3(C)C(=CC[C@@H]4[C@@]5(C)CC[C@H](O)C(C)(C)[C@@H]5CC[C@]43C)[C@H]12 (stereo not given in full)
IC50 (BGC-823): 79.3 µM
IC50 (SH-SY5Y): 72.2 µM
IC50 [1]: 60.3 µM

IC50 (HepG2): 46.6 µM
IC50 (HeLa): 16.3 µM
SMILES: CC(=O)O[C@H]1CC[C@]2(C)[C@H]3CC=C4[C@@H]5[C@@H](C)[C@H](C)CC[C@]5(C(=O)NCCO)CC[C@@]4(C)[C@]3(C)CC[C@H]2C1(C)C
IC50 (BGC-823): 48.5 µM
IC50 (SH-SY5Y): 49.4 µM
IC50 [1]: 27.8 µM

IC50 (HepG2): > 100 µM
IC50 (HeLa): > 100 µM
SMILES: CCOC(=O)[C@]12CC[C@@H](C)[C@H](C)[C@H]1C1=CC[C@@H]3[C@@]4(C)CC[C@H](OC(C)=O)C(C)(C)[C@@H]4CC[C@@]3(C)[C@]1(C)CC2
IC50 (BGC-823): > 100 µM
IC50 (SH-SY5Y): > 100 µM
IC50 [1]: > 100 µM
